Test results from patent US12258338B2, “Modulators of the integrated stress response pathway” (EVOTEC INTERNATIONAL GMBH, priority 2019, dated 2025).

Tests used:
[1] = target: T1, human ERG potassium channel (hERG) (Homo sapiens, UniProt Q12809); assay: hERG channel tail current recording using in vitro Rapid ICE (automated patch-clamp, QPatch HTX); type: cell-based; conditions: Table 26
T1 construct: expressed in transfected cells; host or cells: HEK293, stably transfected, tetracycline-inducible promoter
T1 sequence (Q12809 whole entry): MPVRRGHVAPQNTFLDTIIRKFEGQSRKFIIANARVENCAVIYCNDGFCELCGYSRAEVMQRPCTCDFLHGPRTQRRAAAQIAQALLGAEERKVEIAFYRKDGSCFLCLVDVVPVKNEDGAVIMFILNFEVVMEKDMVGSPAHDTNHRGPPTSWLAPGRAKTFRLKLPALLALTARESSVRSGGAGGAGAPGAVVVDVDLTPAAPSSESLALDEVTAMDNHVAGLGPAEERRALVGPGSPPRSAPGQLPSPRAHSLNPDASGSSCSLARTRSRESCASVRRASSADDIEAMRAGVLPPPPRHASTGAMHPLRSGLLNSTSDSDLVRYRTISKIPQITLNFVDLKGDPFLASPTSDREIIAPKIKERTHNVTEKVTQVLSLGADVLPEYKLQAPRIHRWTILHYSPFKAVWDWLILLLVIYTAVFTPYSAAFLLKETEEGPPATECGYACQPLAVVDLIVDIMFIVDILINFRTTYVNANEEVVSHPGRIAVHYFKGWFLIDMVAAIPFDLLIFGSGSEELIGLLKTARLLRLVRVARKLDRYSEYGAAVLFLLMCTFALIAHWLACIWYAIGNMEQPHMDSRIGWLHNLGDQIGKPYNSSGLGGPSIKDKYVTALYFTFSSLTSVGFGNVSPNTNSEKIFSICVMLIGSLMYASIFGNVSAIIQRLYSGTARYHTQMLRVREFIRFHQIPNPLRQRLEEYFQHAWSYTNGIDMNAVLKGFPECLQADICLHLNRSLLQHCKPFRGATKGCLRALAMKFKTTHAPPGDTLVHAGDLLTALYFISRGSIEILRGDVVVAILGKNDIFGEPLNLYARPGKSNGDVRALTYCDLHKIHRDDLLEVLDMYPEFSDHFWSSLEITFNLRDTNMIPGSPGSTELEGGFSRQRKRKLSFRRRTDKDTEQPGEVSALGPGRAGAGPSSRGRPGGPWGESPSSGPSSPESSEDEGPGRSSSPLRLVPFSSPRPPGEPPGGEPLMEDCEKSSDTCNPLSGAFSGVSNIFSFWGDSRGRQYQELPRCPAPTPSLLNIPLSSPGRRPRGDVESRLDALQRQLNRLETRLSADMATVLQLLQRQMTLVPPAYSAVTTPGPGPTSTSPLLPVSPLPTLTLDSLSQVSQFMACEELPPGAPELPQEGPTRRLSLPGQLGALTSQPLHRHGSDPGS
Method: Protocol—Measure of the Effect on hERG Channel by Tail Current Recording Using In Vitro Rapid ICE
The potency of the example compounds in inhibiting human ERG potassium channel (hERG) tail current was assessed in a recombinant HEK293 cell line stably transfected with hERG cDNA under an inducible promoter, using Rapid ICE (rapid ion channel electrophysiology) assay. Rapid ICE is an automated patch-clamp assay utilizing the QPatch HTX system (Sophion Bioscience A/S). Briefly, inducible HEK hERG cells were cultivated in minimum essential medium supplemented with 10% FBS, 1% non-essential amino acids, 1% sodium pyruvate, 2 mM 1-glutamine, 15 μg/mL blasticidin, and 100 μg/mL hygromycin. hERG channel expression induction was obtained by adding 10 μg/mL tetracycline for 24, 48, or 72 h before recordings.
On the day of the experiment, cells were detached with TrypLE and prepared to be loaded on the instrument. Cells were resuspended in 7 mL of Serum-Free Media containing 25 mM Hepes and soybean trypsin inhibitor and immediately placed in the cell storage tank of the machine. The composition of the extracellular buffer was (mM): NaCl 137, KCl 4, CaCl2 1.8, MgCl2 1.0, d-glucose 10, N-2-hydroxyethylpiperazine-N′-2-ethanesulfonic acid (HEPES) 10, pH 7.4 with 1 M NaOH. The composition of the intracellular solution was (mM): KCl 130, MgCl2 1.0, ethylene glycol-bis(β-aminoethyl ether)-N,N,N′,N′-tetraacetic acid (EGTA) 5, MgATP 5, HEPES 10, pH 7.2 with 1 M KOH. The voltage protocol included the following steps: step from −80 to −50 mV for 200 ms, +20 mV for 4.8 s, step to −50 mV for 5 s, then step to the holding potential of −80 mV. Compounds were dissolved in DMSO and diluted in extracellular buffer to achieve final test concentrations (0.3, 3, and 30 μM) in 0.3% DMSO. The voltage protocol was run and recorded continuously during the experiment. The vehicle, corresponding to 0.3% DMSO in extracellular buffer was then applied for 3 min, followed by the test substance in triplicate. The standard combined exposure time was 5 min. The average of tail current amplitude values recorded from four sequential voltage pulses was used to calculate for each cell the effect of the test substance by calculating the residual current (% control) compared with vehicle pretreatment. Data were reported as % inhibition for each concentration tested, and IC50 values were estimated using QPatch software. At least two cells were tested, and even more if results diverged.

[2] = system: ATF4; assay: HEK-ATF4 High Content Imaging assay (prevention of Tunicamycin induced ISR; ATF4 signal ratio between nucleus and cytoplasm); type: cell-based; conditions: Homo sapiens; Wild-type HEK293 cells, Tunicamycin induced ISR, 6 h; read-out: IIEK-ATF4 Activity
Procedure, shortened: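 Wild-type HEK293 cells in 0.3% FBS medium were co-treated with compounds and Tunicamycin (3.3 μM in prediluted medium, 11-fold over final) for 6 h at 37 °C. Fixed cells were immunostained for ATF4 with Hoechst nuclei; imaging gave nuclear/cytoplasmic ATF4 ratio, with nuclei counts as toxicity control.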

| SMILES | IC50 [2] [µM] | IC50 [1] [µM] |
| --- | --- | --- |
| O=C(COc1ccc(Cl)c(F)c1)N[C@H]1CC[C@H](c2nnc(OC3CC(F)(F)C3)o2)NC1 [Example 72, 2-(4-chloro-3-fluorophenoxy)-N-[(3S,6R)-6-[5-(3,3-difluorocyclobutoxy)-1,3,4-oxadiazol-2-yl]piperidin-3-yl]acetamide] | 2 to 15 | 1 to 5 |
| O=C(COc1ccc(Cl)c(F)c1)N[C@@H]1CC[C@@H](c2nnc(OCCC(F)(F)F)o2)NC1 [Example 42, 2-(4-chloro-3-fluorophenoxy)-N-[(3R,6S)-6-[5-(3,3,3-trifluoropropoxy)-1,3,4-oxadiazol-2-yl]piperidin-3-yl]acetamide] | 0.001 to 0.5 | 1 to 5 |
| O=C(COc1ccc(Cl)c(F)c1)N[C@@H]1CC[C@@H](c2nnc(-c3ccc(Cl)cc3)o2)NC1=O (single isomer, unassigned) [Example 109] | 0.001 to 0.5 | 0.001 to 1 |
| CC(C)(C)OC(=O)N1C[C@@H](NC(=O)COc2ccc(Cl)c(F)c2)CC[C@@H]1c1nnc(OCCOC(F)(F)F)o1 [Example 76, tert-butyl (2R,5S)-5-[2-(4-chloro-3-fluorophenoxy)acetamido]-2-{5-[2-(trifluoromethoxy)ethoxy]-1,3,4-oxadiazol-2-yl}piperidine-1-carboxylate] | 0.5 to 2 | > 5 |
| O=C(COc1ccc(Cl)c(F)c1)N[C@@H]1CC[C@H](c2nnc([C@H]3C[C@@H](OC(F)(F)F)C3)o2)NC1=O (racemic) [Example 38, rac-2-(4-chloro-3-fluorophenoxy)-N-[(3R,6R)-2-oxo-6-{5-[(1s,3s)-3-(trifluoromethoxy)cyclobutyl]-1,3,4-oxadiazol-2-yl}piperidin-3-yl]acetamide] | 2 to 15 | > 5 |
| CCCCOc1nnc([C@H]2CC[C@H](NC(=O)COc3ccc(Cl)c(F)c3)CN2)o1 [Example 67, N-[(3S,6R)-6-(5-butoxy-1,3,4-oxadiazol-2-yl)piperidin-3-yl]-2-(4-chloro-3-fluorophenoxy)acetamide] | 0.001 to 0.5 | 1 to 5 |
| O=C(COc1ccc(Cl)c(F)c1)N[C@@H]1CC[C@@H](c2nnc(OCCOC(F)(F)F)o2)NC1 [Example 83, 2-(4-chloro-3-fluorophenoxy)-N-[(3R,6S)-6-{5-[2-(trifluoromethoxy)ethoxy]-1,3,4-oxadiazol-2-yl}piperidin-3-yl]acetamide] | 0.001 to 0.5 | > 5 |
| CC1(OC(F)(F)F)CN(c2nnc([C@H]3CC[C@H](NC(=O)COc4ccc(Cl)c(F)c4)CN3)o2)C1 [Example 93, 2-(4-chloro-3-fluorophenoxy)-N-[(3S,6R)-6-{5-[3-methyl-3-(trifluoromethoxy)azetidin-1-yl]-1,3,4-oxadiazol-2-yl}piperidin-3-yl]acetamide] | 0.5 to 2 | > 5 |
| CCOCCOc1nnc([C@H]2CC[C@H](NC(=O)COc3ccc(Cl)c(F)c3)CN2)o1 [Example 81, 2-(4-chloro-3-fluorophenoxy)-N-[(3S,6R)-6-[5-(2-ethoxyethoxy)-1,3,4-oxadiazol-2-yl]piperidin-3-yl]acctamide] | 0.5 to 2 | > 5 |
| O=C(COc1cnc(Cl)c(F)c1)N[C@H]1CC[C@H](c2nnc(-c3ccc(Cl)cc3)o2)NC1 [Example 7, 2-[(6-chloro-5-fluoropyridin-3-yl)oxy]-N-[(3S,6R)-6-[5-(4-chlorophenyl)-1,3,4-oxadiazol-2-yl]piperidin-3-yl]acetamide] | 0.001 to 0.5 | 0.001 to 1 |
| O=C(COc1ccc(Cl)c(F)c1)N[C@H]1CC[C@H](c2nnc(CCCOC(F)(F)F)o2)NC1 [Example 55, 2-(4-chloro-3-fluorophenoxy)-N-[(3S,6R)-6-{5-[3-(trifluoromethoxy)propyl]-1,3,4-oxadiazol-2-yl}piperidin-3-yl]acetamide] | 0.001 to 0.5 | > 5 |
| O=C(COc1ccc(Cl)c(F)c1)N[C@H]1CC[C@H](c2nnc(OCC3CCC3(F)F)o2)NC1 (stereo partly drawn) [Example 71, 2-(4-chloro-3-fluorophenoxy)-N-[(3S,6R)-6-{5-[(2,2-difluorocyclobutyl)methoxy]-1,3,4-oxadiazol-2-yl}piperidin-3-yl]acetamide] | 0.5 to 2 | 1 to 5 |

Second part, led by results:

| IC50 [2] [µM] | SMILES | IC50 [1] [µM] |
| --- | --- | --- |
| 0.001 to 0.5 | CCCCCOc1nnc([C@H]2CC[C@H](NC(=O)COc3ccc(Cl)c(F)c3)CN2)o1 [Example 78, 2-(4-chloro-3-fluorophenoxy)-N-[(3S,6R)-6-[5-(pentyloxy)-1,3,4-oxadiazol-2-yl]piperidin-3-yl]acetamide] | 1 to 5 |
| 0.5 to 2 | N#Cc1cc(OCC(=O)N[C@H]2CC[C@H](c3nnc(OCCOC(F)(F)F)o3)NC2)ccc1Cl [Example 29, 2-(4-chloro-3-cyanophenoxy)-N-[(3S,6R)-6-{5-[2-(trifluoromethoxy)ethoxy]-1,3,4-oxadiazol-2-yl}piperidin-3-yl]acetamide] | > 5 |
| 0.001 to 0.5 | O=C(COc1cnc(Cl)c(F)c1)N[C@H]1CC[C@H](c2nnc(-c3ccc(Cl)c(Cl)c3)o2)NC1 [Example 100, 2-[(6-chloro-5-fluoropyridin-3-yl)oxy]-N-[(3S,6R)-6-[5-(3,4-dichlorophenyl)-1,3,4-oxadiazol-2-yl]piperidin-3-yl]acetamide] | 1 to 5 |
| 2 to 15 | O=C(COc1ccc(Cl)c(F)c1)N[C@@H]1CN[C@@H](c2nnc(-c3ccc(Cl)cc3)o2)C1 [Example 31, 2-(4-chloro-3-fluorophenoxy)-N-[(3S,5R)-5-[5-(4-chlorophenyl)-1,3,4-oxadiazol-2-yl]pyrrolidin-3-yl]acetamide] | 0.001 to 1 |
| 0.5 to 2 | O=C(COc1ccc(Cl)c(F)c1)N[C@H]1CC[C@H](c2nnc(N3CC(CC(F)(F)F)C3)o2)NC1 [Example 92, 2-(4-chloro-3-fluorophenoxy)-N-[(3S,6R)-6-{5-[3-(2,2,2-trifluoroethyl)azetidin-1-yl]-1,3,4-oxadiazol-2-yl}piperidin-3-yl]acetamide] | 1 to 5 |
| 0.5 to 2 | O=C(COc1ccc(Cl)c(F)c1)N[C@H]1CC[C@H](c2nnc([C@H]3C[C@@H](OC4CC4)C3)o2)NC1 (single isomer, unassigned) [Example 105] | > 5 |
| 0.001 to 0.5 | O=C(COc1ccc(Cl)c(F)c1)N[C@H]1CC[C@H](c2nnc(OCCC(F)(F)F)o2)NC1 [Example 33, 2-(4-chloro-3-fluorophenoxy)-N-[(3S,6R)-6-[5-(3,3,3-trifluoropropoxy)-1,3,4-oxadiazol-2-yl]piperidin-3-yl]acetamide] | 1 to 5 |
| 0.001 to 0.5 | CCN1C[C@@H](NC(=O)COc2ccc(Cl)c(F)c2)CC[C@@H]1c1nnc(-c2ccc(Cl)cc2)o1 [Example 46, 2-(4-chloro-3-fluorophenoxy)-N-[(3S,6R)-6-[5-(4-chlorophenyl)-1,3,4-oxadiazol-2-yl]-1-ethylpiperidin-3-yl]acetamide] | 0.001 to 1 |
| 0.001 to 0.5 | O=C(COc1ccc(Cl)c(F)c1)N[C@H]1CC[C@H](c2nnc(N3CC(OC(F)(F)F)C3)o2)NC1 [Example 91, 2-(4-chloro-3-fluorophenoxy)-N-[(3S,6R)-6-{5-[3-(trifluoromethoxy)azetidin-1-yl]-1,3,4-oxadiazol-2-yl}piperidin-3-yl]acetamide] | 1 to 5 |
| 0.001 to 0.5 | O=C(COc1ccc(Cl)c(Cl)c1)N[C@H]1CC[C@H](c2nnc([C@H]3C[C@@H](OC(F)(F)F)C3)o2)NC1 [Example 9, 2-(3,4-dichlorophenoxy)-N-[(3S,6R)-6-{5-[(1s,3s)-3-(trifluoromethoxy)cyclobutyl]-1,3,4-oxadiazol-2-yl}piperidin-3-yl]acetamide] | 1 to 5 |
| 0.5 to 2 | O=C(COc1ccc(Cl)c(F)c1)N[C@H]1CC[C@H](c2nnc(OCC3CC3C(F)(F)F)o2)NC1 (stereo partly drawn) [Example 88, 2-(4-chloro-3-fluorophenoxy)-N-[(3S,6R)-6-(5-{[2-(trifluoromethyl)cyclopropyl]methoxy}-1,3,4-oxadiazol-2-yl)piperidin-3-yl]acetamide] | 1 to 5 |
| 0.001 to 0.5 | O=C(COc1ccc(Cl)c(F)c1)N[C@H]1CC[C@H](c2nnc(OCCC3CC3)o2)NC1 [Example 69, 2-(4-chloro-3-fluorophenoxy)-N-[(3S,6R)-6-[5-(2-cyclopropylethoxy)-1,3,4-oxadiazol-2-yl]piperidin-3-yl]acetamide] | 0.001 to 1 |
